# Test results from article PMC10353390, “Biological and Structural Analyses of New Potent Allosteric Inhibitors of HIV-1 Integrase” (Antimicrobial Agents and Chemotherapy, 2023).
# Tested on: HIV-1 strains resistant to INSTIs, NRTIs, NNRTIs or PIs
# Assay type: cell-based
# Details: INSTI-resistant, NL4-3 background
# Method: To this end, we used both recombinant viruses constructed by introducing described drug resistance mutations into NL4-3 HIV-1 clone as well as drug-resistant clinical HIV-1 isolates.
# MT4 cells growing exponentially at the density of 10^6/mL were infected with HIV-1 strain NL4-3 at a multiplicity of infection (MOI) of 0.001 for 2 h in the presence of different concentrations of compounds, and the CellTiter-Glo luminescent reagent (Promega) was used to quantify cell viability as described previously ([12]).
SMILES,"Fold change in EC50 relative to NL4-3, E92Q","Fold change in EC50 relative to NL4-3, G140S","Fold change in EC50 relative to NL4-3, G140S/Q148H","Fold change in EC50 relative to NL4-3, N155H","Fold change in EC50 relative to NL4-3, Q148H","Fold change in EC50 relative to NL4-3, Y143R"
"O=C1Nc2ccc(Cl)cc2[C@@](C#CC2CC2)(C(F)(F)F)O1 [EFV, efavirenz]",1,1,1,1,1,1
"Cc1cc(/C=C/C#N)cc(C)c1Nc1ccnc(Nc2ccc(C#N)cc2)n1 [RPV, rilpivirine]",–,1,1,–,1,–
"CC(C)(C)NC(=O)[C@@H]1CN(Cc2cccnc2)CCN1C[C@@H](O)C[C@@H](Cc1ccccc1)C(=O)N[C@H]1c2ccccc2C[C@H]1O [IDV, indinavir]",1,–,1,1,–,1

# Same assay, conditions: INSTI-resistant, primary patient-derived strain
SMILES,"Fold change in EC50 relative to NL4-3, E92Q/N155H (pat.)","Fold change in EC50 relative to NL4-3, G140S/Q148H (pat.)","Fold change in EC50 relative to NL4-3, T97A/N155H (pat.)"
"O=C1Nc2ccc(Cl)cc2[C@@](C#CC2CC2)(C(F)(F)F)O1 [EFV, efavirenz]",1,1,2
"Cc1cc(/C=C/C#N)cc(C)c1Nc1ccnc(Nc2ccc(C#N)cc2)n1 [RPV, rilpivirine]",1,1,1

# Same assay, conditions: NRTI-resistant clone
row,SMILES,"Fold change in EC50 relative to NL4-3, NLAY351717"
1,"O=C1Nc2ccc(Cl)cc2[C@@](C#CC2CC2)(C(F)(F)F)O1 [EFV, efavirenz]",2
2,"Cc1cc(/C=C/C#N)cc(C)c1Nc1ccnc(Nc2ccc(C#N)cc2)n1 [RPV, rilpivirine]",1
3,"CC(C)(C)NC(=O)[C@@H]1CN(Cc2cccnc2)CCN1C[C@@H](O)C[C@@H](Cc1ccccc1)C(=O)N[C@H]1c2ccccc2C[C@H]1O [IDV, indinavir]",1

# Same assay, conditions: NRTI/NNRTI-resistant clone
row,SMILES,"Fold change in EC50 relative to NL4-3, NLAY351753"
1,"O=C1Nc2ccc(Cl)cc2[C@@](C#CC2CC2)(C(F)(F)F)O1 [EFV, efavirenz]",39
2,"Cc1cc(/C=C/C#N)cc(C)c1Nc1ccnc(Nc2ccc(C#N)cc2)n1 [RPV, rilpivirine]",0.4
3,"CC(C)(C)NC(=O)[C@@H]1CN(Cc2cccnc2)CCN1C[C@@H](O)C[C@@H](Cc1ccccc1)C(=O)N[C@H]1c2ccccc2C[C@H]1O [IDV, indinavir]",1

# Same assay, conditions: NRTI/NNRTIs group, NL4-3 background
row,SMILES,"Fold change in EC50 relative to NL4-3, K103N/Y181C"
1,"O=C1Nc2ccc(Cl)cc2[C@@](C#CC2CC2)(C(F)(F)F)O1 [EFV, efavirenz]",51
2,"Cc1cc(/C=C/C#N)cc(C)c1Nc1ccnc(Nc2ccc(C#N)cc2)n1 [RPV, rilpivirine]",3
3,"CC(C)(C)NC(=O)[C@@H]1CN(Cc2cccnc2)CCN1C[C@@H](O)C[C@@H](Cc1ccccc1)C(=O)N[C@H]1c2ccccc2C[C@H]1O [IDV, indinavir]",1

# Same assay, conditions: PI-resistant virus
SMILES,"Fold change in EC50 relative to NL4-3, ARP-4595","Fold change in EC50 relative to NL4-3, ARP-4596","Fold change in EC50 relative to NL4-3, ARP-11801","Fold change in EC50 relative to NL4-3, ARP-11803","Fold change in EC50 relative to NL4-3, ARP-11807","Fold change in EC50 relative to NL4-3, ARP-11808"
"O=C1Nc2ccc(Cl)cc2[C@@](C#CC2CC2)(C(F)(F)F)O1 [EFV, efavirenz]",1,1,0.5,1,2,1
"Cc1cc(/C=C/C#N)cc(C)c1Nc1ccnc(Nc2ccc(C#N)cc2)n1 [RPV, rilpivirine]",1,1,0.4,1,1,1
"CC(C)(C)NC(=O)[C@@H]1CN(Cc2cccnc2)CCN1C[C@@H](O)C[C@@H](Cc1ccccc1)C(=O)N[C@H]1c2ccccc2C[C@H]1O [IDV, indinavir]",5,8,92,260,36,59
